Columns and labels:
cMET = cMET (Homo sapiens, UniProt P08581); conditions: reported; cited from earlier work
cMET and EGFR = conditions: Moores et al. (2016); cited from earlier work
[1] = system: LXFE2478 NSCLC PDX tumor model
Description: This model carries mutation EGFRex20ins (M766_A767insASV).
Insertion of 9 nucleotides in exon 20 in this model affects the EGFR tyrosine kinase domain (M766X) and confers resistance to small molecule EGFR inhibitors. This model carries no mutations in B-RAF, H-/N- and KRAS and PTEN genes (whole exome sequencing was done for both patient tumor and tumor xenograft with matching results).
Antitumor efficacy of all groups was assessed using the control vehicle/placebo buffer group as a reference. Tumor growth inhibition was determined by the comparison of RTVs of the test groups with the control group and is expressed as minimum T/C value in percent. For the evaluation of the statistical significance of antitumor efficacy, the non-parametric Kruskal-Wallis test followed by Dunn's method for multiple comparisons was performed. […] Statistical analysis was only carried out if at least 50% of the initially randomized animals still remained in the relevant group. Comparisons between test groups were carried out for the same days. All p-values <0.05 were considered statistically significant. Statistical calculations were performed using GraphPad Prism bioanalytic software (version 9.10 for Microsoft Windows, GraphPad Software, San Diego, California, USA.
Tumors were harvested from the donor PDX mice, cut into fragments (LXFE2478: 3-4 mm edge length) and inoculated into recipient nude mice subcutaneously (SC) in the flank. When the tumor implants reached approximately 80-200 mm3 in a sufficient number of animals, mice were assigned to groups. Randomization was performed based on “stratified distribution” method. Treatment started on the same day as randomization (day 0).
Treatment started the same day as enrollment (day 0). Mice were terminated during the observation period if the tumor volume was >1000 mm3.
Antibody was administered once a week intra peritoneally (IP) at 5 mg/kg and 25 mg/kg dose over a period of 5 weeks.
After randomization, animals were routinely monitored for morbidity and mortality, they were weighted twice a week, and tumor volumes (TV) were determined twice a week with a caliper. Relative body weight (RBW) was calculated by dividing the absolute weight or volume on a certain day by the absolute weight at day 0 multiplied by 100. Relative tumor volumes (RTV) were calculated by dividing the absolute individual tumor volume on a certain day by the absolute tumor volume at day 0 multiplied by 100.
For mice that lost >10% body weight, weight was measured daily, and animals had facilitated access to feed and water, and access to DietGel.
A dose-free observation period was included to compare duration of response and relapse (tumor re-growth) after treatment end. […]

HCC827-ER1 tumor cells = experiment: HCC827-ER1 NSCLC CDX model with EGFR exon 19 deletion
Excerpt: The model HCC827-ER1 was generated in BALB/c nude mice. It carries an EGFR mutation in exon 19 (deletion E746-A750), and has amplified c-MET copy number and Axl expression compared to the wild type HCC827 cell line.
Each mouse was inoculated in the right front flank region with HCC827-ER1 tumor cells mixed with Matrigel for tumor development. […] The date of randomization was denoted as day 0 and dosing was initiated from day 0. […] The dose-free observation period was included to compare duration of response and relapse (tumor re-growth) after treatment end. Mice with tumor volume exceeding 1500 mm^3, or with body weight loss over 20% relative to the weight at the first day of treatment were terminated during the treatment period. Antibody was administered twice a week intra peritoneally (i.p.) at 25 mg/kg dose over a period of 21 days, with a total of 7 doses. […] Eight mice in group 1 were treated with vehicle control (placebo buffer). Tumor volume (mm^3) was measured twice per week in 2 dimensions using a caliper. The animals were checked for any effects of tumor growth and treatments on behavior such as mobility, food and water consumption, body weight gain/loss, eye/hair matting and any other abnormalities. Body weights were measured twice per week after randomization.

mouse EGFR = mouse EGFR (Mus musculus, UniProt Q01279); experiment: Binding to mouse EGFR; conditions: in words

cMET, sequence (P08581 25-1390): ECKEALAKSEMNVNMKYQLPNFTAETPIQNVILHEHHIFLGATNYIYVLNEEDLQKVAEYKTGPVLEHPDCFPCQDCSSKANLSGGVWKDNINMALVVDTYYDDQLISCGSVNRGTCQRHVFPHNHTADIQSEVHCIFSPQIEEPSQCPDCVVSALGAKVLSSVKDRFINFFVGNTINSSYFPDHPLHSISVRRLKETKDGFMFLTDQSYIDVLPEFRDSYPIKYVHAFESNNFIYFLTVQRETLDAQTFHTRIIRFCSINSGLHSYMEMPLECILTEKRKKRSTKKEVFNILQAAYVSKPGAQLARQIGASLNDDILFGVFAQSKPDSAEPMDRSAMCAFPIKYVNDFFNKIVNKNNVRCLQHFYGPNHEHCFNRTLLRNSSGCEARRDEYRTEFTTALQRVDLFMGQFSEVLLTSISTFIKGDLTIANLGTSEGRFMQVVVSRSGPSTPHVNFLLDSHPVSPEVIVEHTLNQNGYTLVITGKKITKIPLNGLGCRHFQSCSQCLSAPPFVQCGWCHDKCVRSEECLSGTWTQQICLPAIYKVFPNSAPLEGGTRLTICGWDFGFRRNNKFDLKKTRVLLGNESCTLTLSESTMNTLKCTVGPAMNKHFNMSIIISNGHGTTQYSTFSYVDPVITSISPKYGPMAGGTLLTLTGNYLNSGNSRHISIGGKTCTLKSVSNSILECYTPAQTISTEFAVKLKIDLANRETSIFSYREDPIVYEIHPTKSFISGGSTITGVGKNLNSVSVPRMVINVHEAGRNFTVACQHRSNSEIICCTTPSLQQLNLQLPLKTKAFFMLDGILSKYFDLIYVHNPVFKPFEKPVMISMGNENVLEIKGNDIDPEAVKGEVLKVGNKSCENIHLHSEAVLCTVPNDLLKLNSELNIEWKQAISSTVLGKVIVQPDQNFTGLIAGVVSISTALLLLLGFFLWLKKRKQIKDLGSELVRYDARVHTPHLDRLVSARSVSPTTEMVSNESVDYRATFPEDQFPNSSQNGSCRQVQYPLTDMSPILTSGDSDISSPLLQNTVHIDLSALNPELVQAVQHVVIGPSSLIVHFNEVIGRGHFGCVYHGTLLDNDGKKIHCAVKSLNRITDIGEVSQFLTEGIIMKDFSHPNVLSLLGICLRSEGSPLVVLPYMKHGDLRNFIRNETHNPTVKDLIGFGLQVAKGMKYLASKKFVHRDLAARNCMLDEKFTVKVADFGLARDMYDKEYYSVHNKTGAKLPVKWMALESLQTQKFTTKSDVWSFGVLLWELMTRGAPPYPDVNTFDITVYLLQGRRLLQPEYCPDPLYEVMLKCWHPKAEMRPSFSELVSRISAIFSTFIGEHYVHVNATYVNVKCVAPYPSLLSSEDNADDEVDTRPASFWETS

In the case of “5D5: reference anti-cMET antibody, Sema Domain, HGF block”, the MOA (cMET) is given as “HGF block”.
In the case of “JNJ-61186372: bispecific cMET×EGFR antibody produced by controlled Fab-arm exchange (Moores et al 2016)”, the “affinity imbalance, greater affinity for cMET than EGFR” value (cMET and EGFR) is given as “approximately 40 ×”.
With C=CC(=O)Nc1cc(Nc2nccc(-c3cn(C)c4ccccc34)n2)c(OC)cc1N(C)CCN(C)C [Osimertinib] the “anti-tumor efficacy, monotherapy” value ([1]; 5 and 25 mg/kg) was “dose-dependent anti-tumor efficacy”, the body weight loss ([1]; Osimertinib 25 mg/kg PO QD) was over 10% and the “sensitivity of the model to treatment” value ([1]; at 5 mg/kg) was “reduced sensitivity”. The “xenograft progression to 750 mm3, mice” value ([1]; mouse, in vivo) was 6/9, the adverse events (HCC827-ER1 tumor cells; 25 mg/kg) was “tumor scabbing or tumor ulceration in some mice” and the “effect on tumor volume” value (HCC827-ER1 tumor cells; mouse, in vivo) was “tumor regression”.
With “zalutumumab: EGFR monoclonal antibody in clinical development” the “binding to mouse EGFR” value (mouse EGFR) was “do not”.
